Test results from patent publication US20230113802A1, “COMPOSITION AND METHOD TO PREPARE LONG-ACTING INJECTABLE SUSPENSION CONTAINING MULTIPLE CANCER DRUGS” (University of Washington, priority 2020, published 2023).
Values joined by “and” are separate entries in the source; they are usually repeats but may differ in a detail not shown here. Equal entries are not always repeated. Marks after values point to notes of the source that are not given here.

Experiments:
[1] = plasma concentration above which G tri-phosphate levels no longer increase; patients with leukemia; cited from earlier work
[2] = Mechanism-based pharmacokinetic modeling (MBPK) of DcNP associated and dissociated GT; set-up: species or system mice; details: for V, DcNP Dissociated Parameter: fitted to CrEL data
Text: Briefly, the model adopted here for GT is composed of two sub-models representing DcNP-associated drug and dissociated drug species. Each sub-model has a central compartment and a peripheral compartment. The observed plasma concentration is the sum of DcNP-associated and dissociated species since they cannot be measured separately. […] These parameters were then fixed and the linked sub-models were fitted to the observed total concentrations for G and T obtained after injection of the DcNP-dose. The model reasonably assumed that the pharmacokinetics of drugs released from particles will be the same as that of the free-drug (CrEL) control. It was assumed that G and T are released from the particle at independent rates (k1,3) in the central compartment and only dissociated drugs are subject to clearance from the system (k0,1). […] The peripheral compartment features purely drug exchange between plasma and a group of slowly equilibrating tissues (k4,3, k3,4). In other words, the DcNP-associated drug is cleared only via its release from the particles in the central compartment. […] MBPK modeling and parameter estimations were performed using SAAM II v2.3.
To further understand the effect of DcNP on the pharmacokinetic behavior of GT, a mechanism-based pharmacokinetic model (MBPK) was used to simulate the time course of DcNP-associated and dissociated drugs in plasma. The MBPK model adapted for GT-DcNPs is based on a validated MBPK model developed for long-acting HIV drug combination nanoparticles tested in non-human primates. Experimentally, the total drug concentrations in plasma (i.e., DcNP-associated plus dissociated) can be measured, but DcNP-associated and dissociated drugs could not be distinguished. […] The MBPK model presented in FIG. 4 utilizes data from both DcNP and CrEL control formulation treated animals to estimate plasma concentrations of DcNP-associated and dissociated drug species over time and their respective time-averaged fractions in vivo. After intravenous administration as a DcNP, GT can theoretically exist in at least two species: DcNP-associated drug and dissociated drug. The latter can be reasonably assumed to distribute and be cleared as free G and T after administration of CrEL control formulation.
Individual distribution, metabolism and elimination of G and T are well characterized. […] T is metabolized in the liver primarily by CYP3A4 and CYP2C8 with subsequent excretion of metabolites into the bile. In this model, the k0,1 term represents the aggregate elimination processes of G and T through their independent described pathways. A peripheral compartment for both G and T was added and distribution was parameterized with the k1,2 and k2,1 terms. […] With these assumptions in place, the k1,3 term was set to link the two sub-models and represent the release mechanism of drug from DcNP into the central compartment. The DcNP associated species of G and T was then parameterized with the k4,3 and k3,4 to account for distribution.

[3] = Estimating the maximum dissociated fraction of G and T in vivo (Eq. 1, Eq. 2); set-up: species or system BALB/c mice; details: for maximum dissociated fraction (fdiss. max), Eq. 1: from plasma AUCs of DcNP and CrEL
Text: To estimate a maximum dissociated fraction (fdiss. max) of GT from DcNPs in vivo, a non-compartmental approach based on the plasma AUCs of equi-molar injections of DcNP and CrEL formulations was first utilized: […]
In Eq. 1, it is assumed that systemic clearance of G or T administered as DcNPs only occurs after drug dissociates from the particles, and dissociated drug has the same clearance pathways as the free drug control (CrEL). This non compartmental approach also assumes that drug clearance occurs solely in the central compartment. For the two drugs of interest, T is mainly metabolized in the liver by CYP3A4 and CYP2C8 but G is metabolized by ubiquitous cytidine deaminase (CDA). To understand the impact of the ubiquitous metabolism of G on its pharmacokinetic profile, the plasma concentration of the primary metabolite of G, dFdU, was used as a biomarker for dissociated drug. […] The equation below then provides an estimate of the fraction of the G dose metabolized to dFdU. If the calculated fraction metabolized (fdiss.G→dFdU) from Eq. 2 equals the fdiss. max from Eq. 1, it can be surmised that once G is released from DcNPs at all locations in the body it exchanges readily with the circulating G and subsequently undergoes metabolism (i.e., metabolism of all dissociated drug occurs in the central compartment). However, if some or all of the drug released from DcNPs in peripheral tissue is immediately metabolized to dFdU without exchanging with G in circulation, the fdiss.G→dFdU estimates from Eq. 2 would be expected to exceed the fdiss. max from Eq. 1 (i.e., dissociated drug is metabolized in both the central and peripheral compartments).
G AUC0→∞,CrEL is the plasma AUC of G given in free drug form. G AUC0→∞,DcNP is the total AUCs of associated and dissociated G given in DcNP form. dFdU AUC0→∞, CrEL is the AUC of dFdU formed after administration of free G. dFdU AUC0→∞,DcNP is the AUC of dFdU after dosing G in DcNP, which reflects the amount of dissociated G released from DcNPs and available for metabolic conversion. fdiss.G→dFdU represents the fraction of DcNP-dose that is released as free drug and available for conversion to dFdU by CDA.
The assumptions underlying Eq. 2 are as follows: [1] Dissociated (free) G, but not associated G, is readily available for metabolism by CDA. Dissociated G is rapidly and extensively metabolized to dFdU by CDA. […] A detailed pharmacokinetic model for the associated and dissociated species will be presented next to simulate the in vivo association of both drugs.

metastatic breast cancer = details: cited from earlier work
[4] = model derived, single IV dose in GT DcNP dosage form
[5] = model derived, single IV dose in GT DcNP dosage form, listed as G

Structure (SMILES): Nc1ccn([C@@H]2O[C@H](CO)[C@@H](O)C2(F)F)c(=O)n1 [Gemcitabine, 4-amino-1-[(2R,4R,5R)-3,3-difluoro-4-hydroxy-5-(hydroxymethyl)oxolan-2-yl]pyrimidin-2-one]
- target concentration in plasma [1]: 3 µg/mL
- decrease of estimated volume of central compartment, DcNP compared to CrEL [2]: 4.6 times
- release parameter (k1,3) of G lower than T ([2]; GT DcNP): 9.5 fold
- K0,1, DcNP Dissociated Parameter [2, 4]: 3.9 ± 0.9 h⁻¹
- K1,2, DcNP Dissociated Parameter [2, 4]: 0.5 ± 0.2 h⁻¹
- K1,3 (release parameter), DcNP Associated Parameter [2, 4]: 0.2 ± 0.02 h⁻¹
- K2,1, DcNP Dissociated Parameter [2, 4]: 0.2 ± 0.1 h⁻¹
- K3,4, DcNP Associated Parameter [2, 4]: 0.6 ± 0.1 h⁻¹
- K4,3, DcNP Associated Parameter [2, 4]: 1.8 ± 0.5 h⁻¹
- VDcNP, DcNP Associated Parameter [2, 4]: 5.2 ± 0.6 mL
- V, DcNP Dissociated Parameter [2, 4]: 24 ± 12 mL
- V, DcNP Dissociated Parameter [2, 5]: 24 mL
- K1,3 (release parameter), DcNP Associated Parameter [2, 5]: 0.2 h⁻¹
- VDcNP, DcNP Associated Parameter [2, 5]: 5.2 mL
- fraction of dissociated G accessible for metabolism (fdiss.G→dFdU), Eq. 2 ([3]; GT DcNP IV): 8%
- in vivo association to DcNPs per Eq. 1 ([3]; GT DcNP IV): > 98%
- maximum dissociated fraction (fdiss. max), Eq. 1 ([3]; GT DcNP IV): 1.6%
- G in DcNP dosage form not accessible for dFdU conversion / remaining associated to DcNPs in vivo ([3]; after IV GT-DcNP administration, listed as G): 92% and > 92%

Structure (SMILES): CC(=O)O[C@H]1C(=O)[C@@]2(C)[C@H]([C@H](OC(=O)c3ccccc3)[C@]3(O)C[C@H](OC(=O)[C@H](O)[C@@H](NC(=O)c4ccccc4)c4ccccc4)C(C)=C1C3(C)C)[C@]1(OC(C)=O)CO[C@@H]1C[C@@H]2O [Paclitaxel, [(1S,2S,3R,4S,7R,9S,10S,12R,15S)-4,12-diacetyloxy-15-[(2R,3S)-3-benzamido-2-hydroxy-3-phenylpropanoyl]oxy-1,9-dihydroxy-10,14,17,17-tetramethyl-11-oxo-6-oxatetracyclo[11.3.1.0^3,10.0^4,7]heptadec-13-en-2-yl] benzoate]
- VDcNP, DcNP Associated Parameter [2, 4]: 0.8^a mL
- Median survival (metastatic breast cancer; first-line treatment, combination versus paclitaxel only): 15.8 months
- response rate (metastatic breast cancer; gemcitabine 1250 mg/m^2 IV day 1, day 8 and paclitaxel 175 mg/m^2 IV combination compared to paclitaxel alone): 26.2%
- in vivo association to DcNPs per Eq. 1 ([3]; GT DcNP IV): > 75%
- maximum dissociated fraction (fdiss. max), Eq. 1 ([3]; GT DcNP IV): 26.6%
